The assay addresses Inositol 1,4,5-trisphosphate receptor type 1 (Rattus norvegicus). The assay can be described thus: Compound was tested for inhibition of specific [3H]Ins(1,4,5)P3 binding to Inositol 1,4,5-trisphosphate receptor in rat cerebellar membranes.

We go through one molecule from BindingDB's records for doi:10.1016/0960-894X(96)00399-X (1996).

As a reminder, the IC50 is the concentration at which inhibition is half-maximal. Read a low IC50 as greater potency.

Molecule `O=P(O)(O)OC1C(O)C(CO)C(OP(=O)(O)O)C(OP(=O)(O)O)C1O` [Phosphoric acid mono-((3S,5R,6R)-3,5-dihydroxy-2-hydroxymethyl-4,6-bis-phosphonooxy-cyclohexyl) ester] returned an IC50 of 27 nM.
